From patent US12084472B2 (Ardelyx, Inc., priority 2015, dated 2024)

Target: T1, human TGR5 (Homo sapiens, UniProt Q8TDU6)
T1 construct: expressed in transfected cells; host or cells: HEK293
T1 sequence (Q8TDU6 1-330): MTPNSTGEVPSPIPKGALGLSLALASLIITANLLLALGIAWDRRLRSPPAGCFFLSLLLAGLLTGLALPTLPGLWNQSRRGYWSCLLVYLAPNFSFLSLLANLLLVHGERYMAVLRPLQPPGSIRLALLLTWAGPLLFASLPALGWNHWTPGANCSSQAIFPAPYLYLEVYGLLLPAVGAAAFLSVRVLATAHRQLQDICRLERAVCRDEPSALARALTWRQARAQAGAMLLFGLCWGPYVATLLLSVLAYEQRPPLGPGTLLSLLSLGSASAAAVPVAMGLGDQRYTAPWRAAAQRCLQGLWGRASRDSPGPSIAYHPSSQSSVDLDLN
Test: Cell-based TGR5 assay (cAMP generation, HTRF)
Settings: HEK293 cells stably transfected with human TGR5; cAMP by HTRF; 30 minutes at 37° C.; read-out: pEC50 Human TGR5 (converted)
Method in brief: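 Read-out was HTRF detection of cAMP, converted to concentration via a standard curve and fitted (3-parameter logistic) for pEC50 and maximal response. Agonist stimulation used HEK293 cells stably transfected with human TGR5, incubated 30 min at 37° C in IBMX-containing buffer at 0.05 nM to 10 μM compound.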

Row | SMILES | EC50 [nM]
1 | CN(CCCCN(C)S(=O)(=O)c1ccc(Cl)c(COC2(c3cnccc3-c3ccccc3OC3CC3)CC2)c1)C(=O)[C@@H](O)[C@@H](O)[C@H](O)[C@@H](O)CO [Compound I-461, (2S,3S,4R,5S)-2,3,4,5,6-pentahydroxy-N-methyl-N-{4-[N-methyl4-chloro-3-({1-[4-(2-cyclopropoxyphenyl)pyridin-3-yl]cyclopropoxy}methyl)benzenesulfonamido]butyl}hexanamide] | < 100
2 | CCNC(=O)[C@@H](N)CCCCNS(=O)(=O)c1ccc(COC2(c3cnccc3-c3ccccc3OC3CC3)CC2)c(Cl)c1 [Compound I-486, (S)-2-amino-6-(3-chloro-4-((1-(4-(2-cyclopropoxyphenyl)pyridin-3-yl)cyclopropoxy)methyl)phenylsulfonamido)-N-ethylhexanamide] | 126 to 1000
3 | COc1ccccc1-c1ccncc1C1(NCc2cc(Cl)c(CCCCC(=O)N(C)C[C@H](O)[C@@H](O)[C@H](O)[C@H](O)CO)cc2Cl)CC1 [Compound I-134, 5-{2,5-dichloro-4-[({1-[4-(2-methoxyphenyl)pyridin-3-yl]cyclopropyl}amino)methyl]phenyl}-N-methyl-N-[(2S,3R,4R,5R)-2,3,4,5,6-pentahydroxyhexyl]pentanamide] | 126 to 1000
4 | Cc1ccc(C(C)CCCC(=O)N(CC(=O)N(C)C)C[C@H](O)[C@@H](O)[C@H](O)[C@H](O)CO)cc1CNC1(c2cnccc2-c2ccccc2OC2CC2)CC1 (stereo partly drawn) [Compound I-364, 5-{3-[({1-[4-(2-cyclopropoxyphenyl)pyridin-3-yl]cyclopropyl}amino)methyl]-4-methylphenyl}-N-[(dimethylcarbamoyl)methyl]-N-[(2S,3R,4R,5R)-2,3,4,5,6-pentahydroxyhexyl]hexanamide] | 126 to 1000
5 | O=C(CCCSc1ccc(Cl)c(COC2(c3cnccc3-c3ccccc3OC3CC3)CC2)c1)N(CCS(=O)(=O)N1CCOCC1)C[C@H](O)[C@@H](O)[C@H](O)[C@H](O)CO [Compound I-686, 4-{[4-chloro-3-({1-[4-(2-cyclopropoxyphenyl)pyridin-3-yl]cyclopropoxy}methyl)phenyl]sulfanyl}-N-[2-(morpholine-4-sulfonyl)ethyl]-N-[(2S,3R,4R,5R)-2,3,4,5,6-pentahydroxyhexyl]butanamide] | 126 to 1000
6 | CCOC(=O)NCCN(CCCCSc1ccc(Cl)c(COC2(c3cnccc3-c3ccccc3OC3CC3)CC2)c1)C(=O)[C@@H](O)[C@@H](O)[C@H](O)[C@@H](O)CO [Compound I-576, ethyl N-{2-[(2S,3S,4R,5S)-N-(4-{[4-chloro-3-({1-[4-(2-cyclopropoxyphenyl)pyridin-3-yl]cyclopropoxy}methyl)phenyl]sulfanyl}butyl)-2,3,4,5,6-pentahydroxyhexanamido]ethyl}carbamate] | < 100
7 | O=C(NC[C@H](O)[C@@H](O)[C@H](O)[C@H](O)CO)c1ccc(CCc2ccc(Cl)c(COC3(c4cnccc4-c4ccccc4OC4CC4)CC3)c2)cc1 [Compound I-724, 4-(4-Chloro-3-((1-(4-(2-cyclopropoxyphenyl)pyridin-3-yl)cyclopropoxy)methyl)phenethyl)-N-((2S,3R,4R,5R)-2,3,4,5,6-pentahydroxyhexyl)benzamide] | 126 to 1000
8 | CN(CCCCc1cc(Cl)c(COC2(c3cnccc3-c3ccccc3OC3CC3)CC2)cc1Cl)C(=O)CN(CCN(CC(=O)O)CC(=O)N(C)CCCCc1cc(Cl)c(COC2(c3cnccc3-c3ccccc3OC3CC3)CC2)cc1Cl)CC(=O)O [Compound I-188, 2-({2-[(carboxymethyl)[({4-[2,5-dichloro-4-({1-[4-(2-cyclopropoxyphenyl)pyridin-3-yl]cyclopropoxy}methyl)phenyl]butyl}(methyl)carbamoyl)methyl]amino]ethyl}[({4-[2,5-dichloro-4-({1-[4-(2-cyclopropoxyphenyl)pyridin-3-yl]cyclopropoxy}methyl)phenyl]butyl}(methyl)carbamoyl)methyl]amino)acetic acid] | 126 to 1000
9 | CC(C)N(CCCCNC(=O)N[C@@H](CO)[C@@H](O)[C@H](O)[C@H](O)CO)S(=O)(=O)c1cc(COC2(c3cnccc3-c3ccccc3OC3CC3)CC2)c(Cl)cc1F [Compound I-763, 4-chloro-5-((1-(4-(2-cyclopropoxyphenyl)pyridin-3-yl)cyclopropoxy)methyl)-2-fluoro-N-isopropyl-N-(4-(3-((2S,3R,4S,5R)-1,3,4,5,6-pentahydroxyhexan-2-yl)ureido)butyl) benzenesulfonamide] | < 100
10 | Clc1ccc(Cl)c(COC2(c3cnccc3-c3ccccc3OC3CC3)CCCC2)c1 [Compound I-742, 4-(2-cyclopropoxyphenyl)-3-(1-((2,5-dichlorobenzyl)oxy)cyclopentyl)pyridine] | 126 to 1000

Further lines, results first:

Row | EC50 [nM] | SMILES
11 | < 100 | CC(CCCCN)c1ccc(Cl)c(CNC2(c3cnccc3-c3ccccc3OC3CC3)CC2)c1 (stereo not drawn) [Compound I-242, N-[[5-(6-aminohexan-2-yl)-2-chlorophenyl]methyl]-1-[4-(2-cyclopropoxyphenyl)pyridin-3-yl]cyclopropan-1-amine]
12 | < 100 | O=C(CCCCCNS(=O)(=O)c1ccc(Cl)c(COC2(c3cnccc3-c3ccccc3OC3CC3)CC2)c1)NC[C@H](O)[C@@H](O)[C@H](O)[C@H](O)CO [Compound I-431, 6-[4-chloro-3-({1-[4-(2-cyclopropoxyphenyl)pyridin-3-yl]cyclopropoxy}methyl)benzenesulfonamido]-N-[(2S,3R,4R,5R)-2,3,4,5,6-pentahydroxyhexyl]hexanamide]
13 | < 100 | O=C(NCC(O)C(O)C(O)C(O)CO)N[C@@H](CCCNS(=O)(=O)c1ccc(Cl)c(COC2(c3cnccc3-c3ccccc3OC3CC3)CC2)c1)C(=O)O (stereo partly drawn) [Compound I-480, (2S)-5-[4-chloro-3-({1-[4-(2-cyclopropoxyphenyl)pyridin-3-yl]cyclopropoxy}methyl)benzenesulfonamido]-2-{[(2,3,4,5,6-pentahydroxyhexyl)carbamoyl]amino}pentanoic acid]
14 | < 100 | CC(C)(NCc1cc(Cl)ccc1Cl)c1cnccc1-c1ccccc1OC1CC1 [Compound I-723, 2-(4-(2-Cyclopropoxyphenyl)pyridin-3-yl)-N-(2,5-dichlorobenzyl)propan-2-amine]
15 | < 100 | CC(CCCN(CCCCNS(C)(=O)=O)C(=O)[C@@H](O)[C@@H](O)[C@H](O)[C@@H](O)CO)c1ccc(Cl)c(CNC2(c3cnccc3-c3ccccc3OC3CC3)CC2)c1 (stereo partly drawn) [Compound I-297, (2S,3S,4R,5S)-N-(4-{4-chloro-3-[({1-[4-(2-cyclopropoxyphenyl)pyridin-3-yl]cyclopropyl}amino)methyl]phenyl}pentyl)-2,3,4,5,6-pentahydroxy-N-(4-methanesulfonamidobutyl) hexanamide]
16 | < 100 | O=C(/C=C/CC1CN(S(=O)(=O)c2ccc(Cl)c(COC3(c4cnccc4-c4ccccc4OC4CC4)CC3)c2)C1)NC[C@H](O)[C@@H](O)[C@H](O)[C@H](O)CO [Compound I-452, (2E)-4-{1-[4-chloro-3-({1-[4-(2-cyclopropoxyphenyl)pyridin-3-yl]cyclopropoxy}methyl)benzenesulfonyl]azetidin-3-yl}-N-[(2S,3R,4R,5R)-2,3,4,5,6-pentahydroxyhexyl]but-2-enamide]
17 | < 100 | CS(=O)(=O)NCCCCN(CCCCSc1ccc(Cl)c(CNC2(c3cnccc3-c3ccccc3OC3CC3)CC2)c1)C(=O)[C@@H](O)[C@@H](O)[C@H](O)[C@@H](O)CO [Compound I-582, (2S,3S,4R,5S)-N-[4-({4-chloro-3-[({1-[4-(2-cyclopropoxyphenyl)pyridin-3-yl]cyclopropyl}amino)methyl]phenyl}sulfanyl)butyl]-2,3,4,5,6-pentahydroxy-N-(4-methanesulfonamidobutyl) hexanamide]
18 | < 100 | CC(C)CN(CCCCNC(=O)NC[C@H](O)[C@@H](O)[C@H](O)[C@H](O)CO)S(=O)(=O)c1ccc(Cl)c(COC2(c3cnccc3-c3ccccc3OC3CC3)CC2)c1 [Compound I-762, 4-chloro-3-((1-(4-(2-cyclopropoxyphenyl)pyridin-3-yl)cyclopropoxy)methyl)-N-isobutyl-N-(4-(3-((2S,3R,4R,5R)-2,3,4,5,6-pentahydroxyhexyl)ureido)butyl)benzenesulfonamide]
19 | < 100 | O=C(O)CCCC(=O)N(CCCCc1cc(Cl)c(COC2(c3cnccc3-c3ccccc3OC3CC3)CC2)cc1Cl)C[C@H](O)[C@@H](O)[C@H](O)[C@H](O)CO [Compound I-182, 4-({4-[2,5-dichloro-4-({1-[4-(2-cyclopropoxyphenyl)pyridin-3-yl]cyclopropoxy}methyl)phenyl]butyl}[(2S,3R,4R,5R)-2,3,4,5,6-pentahydroxyhexyl]carbamoyl)butanoic acid]
20 | < 100 | O=C(CCN(CCC(=O)NC[C@H](O)[C@@H](O)[C@H](O)[C@H](O)CO)C(=O)CCCCc1cc(Cl)c(COC2(c3cnccc3-c3ccccc3OC3CC3)CC2)cc1Cl)NC[C@H](O)[C@@H](O)[C@H](O)[C@H](O)CO (stereo in doubt) [Compound I-168, 5-[2,5-dichloro-4-({1-[4-(2-cyclopropoxyphenyl)pyridin-3-yl]cyclopropoxy}methyl)phenyl]-N,N-bis(2-{[(2S,3R,4R,5R)-2,3,4,5,6-pentahydroxyhexyl]carbamoyl}ethyl)pentanamide]
21 | < 100 | CC(CCCCC(=O)NC[C@H](O)[C@@H](O)[C@H](O)[C@H](O)CO)c1ccc(Cl)c(CNC2(c3cnccc3-c3ccccc3OC3CC3)CC2)c1 (stereo partly drawn) [Compound I-317, 6-{4-chloro-3-[({1-[4-(2-cyclopropoxyphenyl)pyridin-3-yl]cyclopropyl}amino)methyl]phenyl}-N-[(2S,3R,4R,5R)-2,3,4,5,6-pentahydroxyhexyl]heptanamide]
